Data reported in patent publication US12568967B2, “Compositions comprising pyridine carboxylate herbicides with synthetic auxin herbicides or auxin transport inhibitors” (priority 2018, dated 2026).
“And” between values parts separate entries of the source, which are not always exact repeats. Identical values can stand only once. Like-named read-outs stand apart in the source and are kept apart here.

How the values were obtained:
Type in all cases: in vivo
[1] = system: Hordeum vulgare (spring barley, HORVS)
Experimental: (§1) Seeds of the desired test plant species were planted in a 90:10% v/v (volume/volume) mixture of PRO-MIX® BX (Premier Tech Horticulture, Quakertown, PA, USA) and PROFILE® GREENS GRADE™ (Profile Products LLC, Buffalo Grove, IL, USA) planting mixture, which typically has a pH of 5.2 to 6.2 and an organic matter content of at least 50 percent, in plastic pots with a surface area of 103.2 square centimeters (cm^2). […] The plants were grown for 7-36 days (d) in a greenhouse with an approximate 14-hour (h) photo-period which was maintained at about 23° C. during the day and 22° C. during the night. Nutrients and water were added on a regular basis and supplemental lighting was provided with overhead metal halide 1000-Watt lamps as necessary. The plants were employed for testing when they reached the second or third true leaf stage.
(§2) Emulsifiable concentrates of each of each pyridine carboxylate herbicide (Compound A or Compound B) were prepared at 100 grams acid equivalent per liter (g ae/L). The emulsifiable concentrates also included a safener, cloquintocet-mexyl, at 120 grams active ingredient per liter (g ai/L), unless otherwise noted below. An aliquot of each emulsifiable concentrate was placed in a 25 mL glass vial and diluted with an aqueous mixture of 1.25% (v/v) ACTIROB® B esterified rapeseed oil (Bayer Crop Science, Research Triangle Park, NC, USA) or MSO® Concentrate with LECI-TECH® methylated soybean oil (Loveland Products, Loveland, CO, USA) to obtain concentrated stock solutions at the highest application rate for each herbicide, based upon a 12 milliliter (mL) application volume at a rate of 187 liters per hectare (L/ha). The concentrated stock solutions were further diluted with an aqueous mixture of 1.25% v/v ACTIROB® B or MSO® Concentrate with LECI-TECH® to obtain stock solutions at reduced application rates for each herbicide. Spray solutions of the herbicide combinations (Compound A or Compound B plus synthetic auxin herbicide or auxin transport inhibitor) were prepared by adding weighed amounts or aliquots of the synthetic auxin herbicide or auxin transport inhibitor to the stock solutions of Compound A or Compound B to form 12-mL spray solutions in two-way combinations.
(§3) The spray solutions were applied to the plant material with an overhead Mandel track sprayer equipped with 8002E nozzles calibrated to deliver 187 L/ha over an application area of 0.503 square meters (m^2) at a spray height of 18 inches (43 centimeters (cm)) above the average plant canopy. Control plants were sprayed in the same manner with the solvent blank. All pyridine carboxylate herbicide (component a) application rates are given as “g ae/ha” and all synthetic auxin herbicide or auxin transport inhibitor (component b) application rates are given as “g ai/ha.”
(§4) The treated plants and control plants were placed in a greenhouse as described above and watered by sub-irrigation to prevent wash-off of the test compounds. After 20-22 d, the condition of the test plants as compared with that of the control plants was determined visually and scored on a scale of 0 to 100 percent where 0 corresponds to no injury and 100 corresponds to complete kill.

[2] = system: Kochia scoparia (kochia, KCHSC); test: Greenhouse postemergence trial KCHSC
[3] = system: Papaver rhoeas (corn poppy, PAPRH); test: Greenhouse postemergence trial PAPRH; settings: PAPRH; for % visual injury Obs: alone; for % visual injury, Obs: applied alone
[4] = system: Echinochloa crus-galli (barnyard grass, ECHCG); test: Greenhouse postemergence trial ECHCG; settings: Compound A 10 g/ha
Experimental: as §1, §2, §3, §4

[5] = system: Papaver rhoeas (corn poppy), herbicide-resistant (PAPRH-R); test: Greenhouse postemergence trial PAPRH-R; settings: PAPRH-R; for % visual injury, Obs: applied alone
[6] = system: Abutilon theophrasti (velvetleaf, ABUTH); test: Greenhouse postemergence trial ABUTH; settings: Compound A 10 g/ha
Experimental: as §1, §2, §3, §4

[7] = system: Cirsium arvense (Canadian thistle, CIRAR); test: Greenhouse postemergence trial CIRAR
[8] = system: Veronica hederifolia (ivyleaf speedwell, VERHE); test: Greenhouse postemergence trial VERHE; settings: VERHE; for % visual injury, Obs: applied alone
Experimental: as §1, §2, §3, §4

[9] = system: Cyanus segetum (cornflower, CENCY); test: Greenhouse postemergence trial CENCY; settings: CENCY; for % visual injury Obs: alone; for % visual injury, Obs: applied alone
[10] = system: Digitaria sanguinalis (large crabgrass, DIGSA); test: Greenhouse postemergence trial DIGSA; settings: Compound A 10 g/ha
Experimental: as §1, §2, §3, §4

[11] = Hordeum vulgare (spring barley, HORVS), in vivo
[12] = Compound A 10 g/ha, without safener
[13] = Papaver rhoeas, post-emergence, Compound A 7.5 g/ha, read-out: % visual injury Obs
[14] = Papaver rhoeas, post-emergence, Compound A 10 g/ha, read-out: % visual injury Obs
[15] = Papaver rhoeas, post-emergence, Compound A 15 g/ha, read-out: % visual injury Obs

## N#CCOC(=O)c1nc(-c2ccc3cc[nH]c3c2F)c(F)c(N)c1Cl [Compound A, cyanomethyl 4-amino-3-chloro-5-fluoro-6-(7-fluoro-1H-indol-6-yl)pyridine-2-carboxylate]
[1]; Compound A 10 g/ha
  HORVS Obs (% visual injury): 0%
[1]; Compound A 10 g/ha (Table 42)
  HORVS % visual injury Obs: 0%
[1]; Compound A 10 g/ha (Table 43)
  HORVS % visual injury Obs: 0%
[1]; Compound A 10 g/ha (Table 44)
  HORVS % visual injury Obs: 0%
[1]; HORVS, Compound A 10 g/ha
  % visual injury Obs: 0%
  % visual injury, Obs: 0%
[1]; HORVS, Compound A 10 g/ha alone
  visual injury, Obs: 0%
[1]; HORVS, Compound A 15 g/ha
  % visual injury Obs: 0%
[1]; HORVS, Compound A 15 g/ha alone
  visual injury, Obs: 0%
[1]; HORVS, alone 10 g/ha
  % visual injury (Obs): 0%
  % visual injury Obs: 0%
[1]; HORVS, alone, 15 g/ha
  % visual injury Obs: 0%
[1]; HORVS, applied alone, 10 g/ha
  % visual injury, Obs: 0%
[1]; HORVS, applied alone, 15 g/ha
  % visual injury, Obs: 0%
[1]; [11]
  % visual injury (crop phytotoxicity): 0%
  % visual injury, Obs (crop phytotoxicity): 0%
[1]; c1-2 Compound A 7.5/10, c3 Quinclorac 140, c4-5 A 7.5/10 + Quinclorac 140 g/ha
  % visual injury (crop phytotoxicity): 0%
[1]; c1-3 Compound A 7.5/10/15, c4-5 Fluroxypyr-MHE 100/140, c6-8, c9-11 A 7.5/10/15 + Fluroxypyr-MHE 100, 140 g/ha
  % visual injury (crop phytotoxicity): 0%
[1]; c1-3 Compound A 7.5/10/15, c4 Aminopyralid 5, c5-7 A 7.5/10/15 + Aminopyralid 5 g/ha
  % visual injury (crop phytotoxicity): 0%
[1]; c1-3 Compound A 7.5/10/15, c4 Halauxifen-methyl 6, c5-7 A 7.5/10/15 + Halauxifen-methyl 6 g/ha
  % visual injury (crop phytotoxicity): 0%
[2]; Bassia scoparia, post-emergence, KCHSC, Compound A 7.5 g/ha, read-out: % visual injury Obs
  pest or weed control at […]: 70%
[2]; Bassia scoparia, post-emergence, KCHSC, Compound A 10 g/ha, read-out: % visual injury Obs
  pest or weed control at 10 g/ha: 75%
[2]; Bassia scoparia, post-emergence, KCHSC, Compound A 15 g/ha, read-out: % visual injury Obs
  pest or weed control at 15 g/ha: 80%
[2]; Compound A 10 g/ha
  KCHSC Obs (% visual injury): 65% and 55%
[2]; Compound A 10 g/ha (Table 42)
  KCHSC % visual injury Obs: 65%
[2]; Compound A 10 g/ha (Table 43)
  KCHSC % visual injury Obs: 65%
[2]; Compound A 10 g/ha (Table 44)
  KCHSC % visual injury Obs: 65%
[2]; [12]
  KCHSC Obs (% visual injury): 88%
[2]; KCHSC, Compound A 10 g/ha
  % visual injury Obs: 75%
  % visual injury, Obs: 65% and 70% and 88%
[2]; KCHSC, Compound A 10 g/ha alone
  visual injury, Obs: 75%
[2]; KCHSC, Compound A 15 g/ha alone
  visual injury, Obs: 80%
[2]; KCHSC, alone 10 g/ha
  % visual injury (Obs): 68% and 55% and 70%
  % visual injury Obs: 75%
[2]; KCHSC, alone, 15 g/ha
  % visual injury Obs: 80%
[2]; KCHSC, applied alone, 10 g/ha
  % visual injury, Obs: 75% and 70%
[2]; KCHSC, applied alone, 15 g/ha
  % visual injury, Obs: 80%
[3]; Compound A 10 g/ha alone
  visual injury, Obs: 100%
[3]; Compound A 15 g/ha alone
  visual injury, Obs: 100%
[3]; 10 g/ha
  % visual injury Obs: 100%
  % visual injury, Obs: 100%
[3]; 15 g/ha
  % visual injury Obs: 100%
  % visual injury, Obs: 100%
[3]; [13]
  pest or weed control at […]: 100%
[3]; [14]
  pest or weed control at 10 g/ha: 100%
[3]; [15]
  pest or weed control at 15 g/ha: 100%
[4]
  ECHCG Obs (% visual injury): 78%
[4]; without safener
  ECHCG Obs (% visual injury): 58%
[4]; ECHCG
  % visual injury, Obs: 58%
[5]; Compound A 10 g/ha
  % visual injury Obs: 90%
[5]; Compound A 10 g/ha alone
  visual injury, Obs: 90%
[5]; Compound A 15 g/ha alone
  visual injury, Obs: 100%
[5]; alone, 10 g/ha
  % visual injury Obs: 90%
[5]; alone, 15 g/ha
  % visual injury Obs: 100%
[5]; 10 g/ha
  % visual injury, Obs: 90%
[5]; 15 g/ha
  % visual injury, Obs: 100%
[5]; [13]
  pest or weed control at […]: 85%
[5]; [14]
  pest or weed control at 10 g/ha: 90%
[5]; [15]
  pest or weed control at 15 g/ha: 100%
[6]; ABUTH
  % visual injury, Obs: 75%
[6]
  ABUTH Obs (% visual injury): 78%
[6]; without safener
  ABUTH Obs (% visual injury): 75%
[7]; CIRAR, Compound A 10 g/ha
  % visual injury, Obs: 20% and 30% and 28%
[7]; CIRAR, Compound A 10 g/ha alone
  visual injury, Obs: 50%
[7]; CIRAR, Compound A 15 g/ha alone
  visual injury, Obs: 60%
[7]; CIRAR, alone 10 g/ha
  % visual injury (Obs): 23% and 30%
  % visual injury Obs: 50%
[7]; CIRAR, alone, 15 g/ha
  % visual injury Obs: 60%
[7]; CIRAR, applied alone, 10 g/ha
  % visual injury, Obs: 50% and 55%
[7]; CIRAR, applied alone, 15 g/ha
  % visual injury, Obs: 60%
[7]; Cirsium arvense, post-emergence, CIRAR, Compound A 7.5 g/ha, read-out: % visual injury Obs
  pest or weed control at […]: 30%
[7]; Cirsium arvense, post-emergence, CIRAR, Compound A 10 g/ha, read-out: % visual injury Obs
  pest or weed control at 10 g/ha: 50%
[7]; Cirsium arvense, post-emergence, CIRAR, Compound A 15 g/ha, read-out: % visual injury Obs
  pest or weed control at 15 g/ha: 60%
[7]; Compound A 10 g/ha
  CIRAR Obs (% visual injury): 20% and 23%
[7]; Compound A 10 g/ha (Table 42)
  CIRAR % visual injury Obs: 20%
[7]; Compound A 10 g/ha (Table 43)
  CIRAR % visual injury Obs: 20%
[7]; Compound A 10 g/ha (Table 44)
  CIRAR % visual injury Obs: 20%
[7]; [12]
  CIRAR Obs (% visual injury): 28%
[8]; Compound A 10 g/ha
  % visual injury Obs: 75%
[8]; Compound A 10 g/ha alone
  visual injury, Obs: 75%
[8]; Compound A 15 g/ha alone
  visual injury, Obs: 80%
[8]; alone, 10 g/ha
  % visual injury Obs: 75%
[8]; alone, 15 g/ha
  % visual injury Obs: 80%
[8]; 10 g/ha
  % visual injury, Obs: 75%
[8]; 15 g/ha
  % visual injury, Obs: 80%
[8]; Veronica hederifolia, post-emergence, Compound A 7.5 g/ha, read-out: % visual injury Obs
  pest or weed control at […]: 65%
[8]; Veronica hederifolia, post-emergence, Compound A 10 g/ha, read-out: % visual injury Obs
  pest or weed control at 10 g/ha: 75%
[8]; Veronica hederifolia, post-emergence, Compound A 15 g/ha, read-out: % visual injury Obs
  pest or weed control at 15 g/ha: 80%
[9]; Compound A 10 g/ha alone
  visual injury, Obs: 100%
[9]; Compound A 15 g/ha alone
  visual injury, Obs: 100%
[9]; 10 g/ha
  % visual injury Obs: 100%
  % visual injury, Obs: 100%
[9]; 15 g/ha
  % visual injury Obs: 100%
  % visual injury, Obs: 100%
[9]; Centaurea cyanus, post-emergence, Compound A 7.5 g/ha, read-out: % visual injury Obs
  pest or weed control at […]: 100%
[9]; Centaurea cyanus, post-emergence, Compound A 10 g/ha, read-out: % visual injury Obs
  pest or weed control at 10 g/ha: 100%
[9]; Centaurea cyanus, post-emergence, Compound A 15 g/ha, read-out: % visual injury Obs
  pest or weed control at 15 g/ha: 100%
[10]
  DIGSA Obs (% visual injury): 25%
[10]; without safener
  DIGSA Obs (% visual injury): 8%
[10]; DIGSA
  % visual injury, Obs: 8%
